Assay results taken from ChEMBL document CHEMBL1201862, “PubChem BioAssay data set” (2004).
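Exposure lasted 48 hours, with cells grown in 96-well plates and compounds tested at five concentrations. GI50: concentration for 50% inhibition of growth.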 The source made the active and inactive calls. Rule as the data show it: active = GI50 up to about 1.1 µM and inactive = higher.

Key:
Test in all cases: growth of human tumour cells (NCI), 48 h
SR = test system: SR
MDA-MB-435 = test system: MDA-MB-435
RXF 393 = test system: RXF 393
NCI-H460 = test system: NCI-H460
MCF7 = test system: MCF7
SK-OV-3 = test system: SK-OV-3
EKVX = test system: EKVX
CCRF-CEM = test system: CCRF-CEM
SK-MEL-2 = test system: SK-MEL-2
SNB-75 = test system: SNB-75
ACHN = test system: ACHN
SF-268 = test system: SF-268
SK-MEL-28 = test system: SK-MEL-28
UACC-257 = test system: UACC-257
HCT-15 = test system: HCT-15
UACC-62 = test system: UACC-62
T47D = test system: T47D
Hs-578T = test system: Hs-578T
TK-10 = test system: TK-10
HOP-18 = test system: HOP-18

Q: `CC(=O)OCC1OC(n2c(S)nc(-c3ccccc3)c(C#N)c2=O)C(OC(C)=O)C(OC(C)=O)C1OC(C)=O` (stereo not drawn) was tested. Which GI50 (SR) did it give?
A: > 100 µM (inactive)

Q: And the GI50 (MDA-MB-435)?
A: > 100 µM (inactive)

Q: And the GI50 (RXF 393)?
A: > 100 µM (inactive)

Q: And the GI50 (NCI-H460)?
A: > 100 µM (inactive)

Q: What about the GI50 (MCF7) of the same molecule?
A: > 100 µM (inactive)

Q: And the GI50 (SK-OV-3)?
A: > 100 µM (inactive)

Q: What about the GI50 (EKVX) of the same molecule?
A: > 100 µM (inactive)

Q: And the GI50 (CCRF-CEM)?
A: > 100 µM (inactive)

Q: And the GI50 (SK-MEL-2)?
A: > 100 µM (inactive)

Q: And the GI50 (SNB-75)?
A: 98.9 µM (inactive)

Q: And the GI50 (ACHN)?
A: > 100 µM (inactive)

Q: What about the GI50 (SF-268) of the same molecule?
A: > 100 µM (inactive)

Q: And the GI50 (SK-MEL-28)?
A: > 100 µM (inactive)

Q: And the GI50 (UACC-257)?
A: > 100 µM (inactive)

Q: And the GI50 (HCT-15)?
A: > 100 µM

Q: What about the GI50 (UACC-62) of the same molecule?
A: > 100 µM (inactive)

Q: And the GI50 (T47D)?
A: > 100 µM (inactive)

Q: And the GI50 (Hs-578T)?
A: > 100 µM (inactive)

Q: And the GI50 (TK-10)?
A: > 100 µM (inactive)

Q: `CCOCC(=O)N[C@H]1CCc2cc(OC)c(OC)c(OC)c2-c2ccc(SC)c(=O)cc21` was tested. Which GI50 (SR) did it give?
A: < 0.01 µM (active)

Q: What about the GI50 (MDA-MB-435) of the same molecule?
A: < 0.01 µM (active)

Q: What about the GI50 (RXF 393) of the same molecule?
A: < 0.01 µM (active)

Q: And the GI50 (NCI-H460)?
A: < 0.01 µM (active)

Q: And the GI50 (MCF7)?
A: < 0.01 µM (active)

Q: What about the GI50 (HOP-18) of the same molecule?
A: > 75.3 µM (inactive)

Q: What about the GI50 (SK-OV-3) of the same molecule?
A: 0.0272 µM (active)

Q: And the GI50 (EKVX)?
A: 7.94 µM (inactive)

Q: What about the GI50 (CCRF-CEM) of the same molecule?
A: < 0.0182 µM (active)

Q: What about the GI50 (SK-MEL-2) of the same molecule?
A: < 0.01 µM (active)

Q: And the GI50 (SNB-75)?
A: 0.0102 µM (active)

Q: What about the GI50 (ACHN) of the same molecule?
A: < 0.0117 µM (active)

Q: And the GI50 (SF-268)?
A: < 0.01 µM (active)

Q: And the GI50 (SK-MEL-28)?
A: > 4.65 µM (inactive)

Q: And the GI50 (UACC-257)?
A: < 0.0169 µM (active)

Q: What about the GI50 (HCT-15) of the same molecule?
A: < 0.01 µM

Q: And the GI50 (UACC-62)?
A: < 0.01 µM (active)

Q: And the GI50 (T47D)?
A: > 100 µM (inactive)

Q: And the GI50 (Hs-578T)?
A: < 0.01 µM (active)

Q: And the GI50 (TK-10)?
A: 0.406 µM (active)

Q: How did the GI50 (SR) turn out when `COc1ccc(/C=C2\C(=O)N(C(=O)c3ccc(NC(C)=O)cc3)N=C2C)cc1` was run?
A: > 100 µM (inactive)

Q: What about the GI50 (NCI-H460) of the same molecule?
A: > 100 µM (inactive)

Q: What about the GI50 (HOP-18) of the same molecule?
A: > 100 µM (inactive)

Q: What about the GI50 (EKVX) of the same molecule?
A: > 100 µM (inactive)

Q: What about the GI50 (CCRF-CEM) of the same molecule?
A: > 100 µM (inactive)

Q: What about the GI50 (SK-MEL-2) of the same molecule?
A: > 100 µM (inactive)

Q: What about the GI50 (SNB-75) of the same molecule?
A: > 100 µM (inactive)

Q: And the GI50 (ACHN)?
A: > 100 µM (inactive)

Q: What about the GI50 (SF-268) of the same molecule?
A: > 100 µM (inactive)

Q: What about the GI50 (SK-MEL-28) of the same molecule?
A: > 100 µM (inactive)

Q: And the GI50 (UACC-257)?
A: > 100 µM (inactive)

Q: What about the GI50 (HCT-15) of the same molecule?
A: > 100 µM

Q: What about the GI50 (TK-10) of the same molecule?
A: > 100 µM (inactive)

Q: With `CSc1nc(NC2OC(COC(C)=O)C(OC(C)=O)C(OC(C)=O)C2OC(C)=O)c2c(OC(C)=O)c(C)c(=O)oc2n1` (stereo not drawn) as the molecule, how does the GI50 (RXF 393) read?
A: > 100 µM (inactive)

Q: What about the GI50 (NCI-H460) of the same molecule?
A: > 100 µM (inactive)

Q: What about the GI50 (HOP-18) of the same molecule?
A: > 100 µM (inactive)

Q: What about the GI50 (SK-OV-3) of the same molecule?
A: > 100 µM (inactive)

Q: What about the GI50 (EKVX) of the same molecule?
A: > 100 µM (inactive)

Q: What about the GI50 (CCRF-CEM) of the same molecule?
A: > 100 µM (inactive)

Q: What about the GI50 (SK-MEL-2) of the same molecule?
A: > 100 µM (inactive)

Q: And the GI50 (SNB-75)?
A: > 100 µM (inactive)

Q: What about the GI50 (ACHN) of the same molecule?
A: > 100 µM (inactive)

Q: What about the GI50 (UACC-257) of the same molecule?
A: > 100 µM (inactive)

Q: And the GI50 (HCT-15)?
A: > 100 µM

Q: What about the GI50 (UACC-62) of the same molecule?
A: > 100 µM (inactive)

Q: What about the GI50 (TK-10) of the same molecule?
A: > 100 µM (inactive)

Q: How did the GI50 (RXF 393) turn out when `CC(=O)SCCC1c2[nH]c3ccccc3c2CCN1O` (stereo not drawn) was run?
A: 78 µM (inactive)

Q: What about the GI50 (NCI-H460) of the same molecule?
A: 82.8 µM (inactive)

Q: What about the GI50 (HOP-18) of the same molecule?
A: > 100 µM (inactive)

Q: And the GI50 (SK-OV-3)?
A: > 100 µM (inactive)

Q: What about the GI50 (EKVX) of the same molecule?
A: > 100 µM (inactive)

Q: And the GI50 (CCRF-CEM)?
A: 31.8 µM (inactive)

Q: And the GI50 (SK-MEL-2)?
A: > 100 µM (inactive)

Q: What about the GI50 (SNB-75) of the same molecule?
A: 18.7 µM (inactive)

Q: And the GI50 (ACHN)?
A: > 100 µM (inactive)

Q: What about the GI50 (SF-268) of the same molecule?
A: > 100 µM (inactive)

Q: And the GI50 (SK-MEL-28)?
A: > 100 µM (inactive)

Q: And the GI50 (UACC-257)?
A: > 100 µM (inactive)

Q: And the GI50 (HCT-15)?
A: 71.6 µM

Q: What about the GI50 (UACC-62) of the same molecule?
A: > 100 µM (inactive)

Q: What about the GI50 (TK-10) of the same molecule?
A: > 100 µM (inactive)

Q: With `Cc1ccc(S(=O)(=O)N(C=O)N=C2CCN(Cc3ccccc3)CC2)cc1` as the molecule, how does the GI50 (SR) read?
A: > 100 µM (inactive)

Q: What about the GI50 (RXF 393) of the same molecule?
A: > 100 µM (inactive)

Q: What about the GI50 (NCI-H460) of the same molecule?
A: > 100 µM (inactive)

Q: What about the GI50 (HOP-18) of the same molecule?
A: > 100 µM (inactive)

Q: What about the GI50 (SK-OV-3) of the same molecule?
A: > 100 µM (inactive)

Q: And the GI50 (EKVX)?
A: > 100 µM (inactive)

Q: And the GI50 (CCRF-CEM)?
A: > 100 µM (inactive)

Q: And the GI50 (SK-MEL-2)?
A: > 100 µM (inactive)

Q: What about the GI50 (SNB-75) of the same molecule?
A: > 100 µM (inactive)

Q: And the GI50 (ACHN)?
A: > 100 µM (inactive)

Q: What about the GI50 (UACC-257) of the same molecule?
A: > 100 µM (inactive)

Q: And the GI50 (HCT-15)?
A: > 100 µM

Q: And the GI50 (UACC-62)?
A: > 100 µM (inactive)

Q: And the GI50 (TK-10)?
A: > 100 µM (inactive)

Q: For `C#CCN(Cc1ccc2nc(OC)c(OC)nc2c1)c1cc(OC)c(OC)c(OC)c1`, which GI50 (SR) is on record?
A: 26.5 µM (inactive)

Q: What about the GI50 (MDA-MB-435) of the same molecule?
A: 6.59 µM (inactive)

Q: What about the GI50 (RXF 393) of the same molecule?
A: 14.9 µM (inactive)

Q: What about the GI50 (NCI-H460) of the same molecule?
A: 20 µM (inactive)

Q: What about the GI50 (MCF7) of the same molecule?
A: 11.9 µM (inactive)

Q: And the GI50 (SK-OV-3)?
A: 24.5 µM (inactive)

Q: And the GI50 (EKVX)?
A: 14.8 µM (inactive)

Q: What about the GI50 (CCRF-CEM) of the same molecule?
A: 34.9 µM (inactive)

Q: And the GI50 (SK-MEL-2)?
A: 23.1 µM (inactive)

Q: What about the GI50 (SNB-75) of the same molecule?
A: 33.7 µM (inactive)

Q: What about the GI50 (ACHN) of the same molecule?
A: 21 µM (inactive)

Q: What about the GI50 (SF-268) of the same molecule?
A: 25.1 µM (inactive)

Q: What about the GI50 (SK-MEL-28) of the same molecule?
A: 40.9 µM (inactive)

Q: What about the GI50 (UACC-257) of the same molecule?
A: 12.3 µM (inactive)

Q: What about the GI50 (HCT-15) of the same molecule?
A: 22.9 µM

Q: And the GI50 (UACC-62)?
A: 18.9 µM (inactive)

Q: What about the GI50 (T47D) of the same molecule?
A: 18.4 µM (inactive)

Q: What about the GI50 (Hs-578T) of the same molecule?
A: 21.2 µM (inactive)

Q: And the GI50 (TK-10)?
A: 35.5 µM (inactive)
